In PubChem BioAssay AID488890 (Southern Research Specialized Biocontainment Screening …, 2010):
Inconclusive results are not listed. Activity calls are given as the source filed them. No rule for the calls is given here.

Each molecule was assayed on Mycobacterium tuberculosis non-replicating, growth inhibition (assay: growth inhibition of non-replicating M. tuberculosis (AID 488890)).

Structure (SMILES)	IC50
C=CCn1c(C)cc(C2=NNC(=NCc3ccccc3)SC2)c1C	7.71 µM
CCOc1ccc2nc(/N=C/c3nc(-c4ccccc4)oc3O)sc2c1	6.2 µM
Cc1ccc(N2NC(=O)/C(=C/C=C/c3ccco3)C2=O)cc1C	3.72 µM
COC(=O)COc1ccc2c(-c3cccc([N+](=O)[O-])c3)cc(=O)oc2c1	1.84 µM
Cc1cccc(C2=N/C(=C\c3cccnc3)C(=O)O2)c1	12.8 µM (inactive)
Cn1c(-c2cccc([N+](=O)[O-])c2)cnc1NCc1cccc(F)c1	29.3 µM (inactive)
Cc1cc(C(=O)N/N=C/c2ccc([N+](=O)[O-])s2)n[nH]1	3.31 µM
CNC(C)C#Cc1ccc2oc3cc(C)c(C)cc3c(=O)c2c1 (centres undefined)	7.55 µM
COC(=O)COc1ccc(-c2nn(C)c(=O)c3ccccc23)cc1	4.25 µM
N=c1oc2ccccc2cc1C(=O)Nc1ccccc1	33 µM (inactive)
CC1CC(C)CN(C(=O)COC(=O)c2ccc([N+](=O)[O-])o2)C1 (centres undefined)	5.18 µM
Oc1c(Cl)cc(CN2CCOCC2)c2cccnc12	2.53 µM
O=C(COC(=O)c1ccc(Br)o1)NCCCc1ccccc1	6.5 µM
Cc1ccc(-c2nnc(-c3cccs3)o2)cc1	2 µM
O=C(N/N=C/c1ccc[nH]1)c1ccc2c(c1)OCO2	8.98 µM
CCCn1nnnc1NCc1ccc(CC)cc1	8.41 µM
Cn1cnc([N+](=O)[O-])c1S(=O)(=O)c1cccc(Cl)c1	4.5 µM
COc1cccc(-c2nnc(NC(=O)c3ccc(S(=O)(=O)N(CC(C)C)CC(C)C)cc3)o2)c1	13.7 µM (inactive)
CCOc1cccc(CNCCc2c(C)[nH]c3ccc(OC(F)(F)F)cc23)c1O	9.79 µM
Cc1ccnc(NC(=O)c2cc3ccccc3o2)c1	4.74 µM

Structure (SMILES)	IC50
COc1ccc2cc(C(=O)NCc3ccccc3CN3CCCC3)ccc2c1	17.7 µM (inactive)
COc1ccc(C(=O)Nc2ccccc2C(=O)N/N=C/c2ccccn2)cc1OC	24.7 µM (inactive)
Cc1ccccc1-n1ncc2c([N+](=O)[O-])cc([N+](=O)[O-])cc21	4.83 µM
Cc1ccc(NC(=O)c2ccc([N+](=O)[O-])o2)c(C)c1	8.9 µM
CCc1ccc(C(=O)NC2CCCCC2)s1	0.94 µM
Cc1cccc2nc(CSc3nc4cc([N+](=O)[O-])ccc4s3)cn12	18.1 µM (inactive)
Cc1ccc(NC(=O)COc2ccccc2)cc1Cl	9.92 µM
CCOC(=O)Cn1c(-c2ccccc2)ccc(C#N)c1=O	4.71 µM
Cc1cc(C)c2c(=O)n(CC(=O)Nc3cccc(Cl)c3C)sc2n1	7.18 µM
COc1ccccc1-c1cc(SC)c(C#N)c(=O)o1	14.2 µM (inactive)
CC(=O)N1CCN(c2cc3c(cc2F)c(=O)c(C(=O)O)cn3C2CC2)CC1	1.42 µM
CC(NC(=O)COc1ccccc1F)C1CC2CCC1C2 (centres undefined)	0.42 µM
Nc1ccccc1C#CC(=O)c1ccccc1	< 0.1 µM
CCCCNC(=O)Cc1ccc(C)cc1	5.46 µM
CCS(=O)(=O)c1ncc(Cl)c(C(=O)Nc2ccc(C)cc2)n1	4.64 µM
O=C(COC(=O)COc1ccc(Nc2ccccc2)cc1)NCc1ccco1	10.3 µM (inactive)
CCSc1nsc(NC(=O)Nc2ccc(F)cc2F)n1	18.9 µM (inactive)
C/C(=N\Nc1nc2ccccc2nc1C)c1ccccc1O	1.65 µM
Cc1[nH]n(-c2ccccc2)c(=O)c1C=Nc1cnc2ccccc2c1	6.23 µM
NCCOc1ccc(C23CC4CC(CC(C4)C2)C3)cc1	16 µM (inactive)

Structure (SMILES)	IC50
O=C(Nc1nc(-c2ccccn2)cs1)c1ccc([N+](=O)[O-])o1	25.5 µM (inactive)
CCC/C(=N\NC(=O)c1ccco1)c1ccc(Cl)s1	9.41 µM
O=[N+]([O-])c1cnc(Nc2ccc(Cl)cn2)c([N+](=O)[O-])c1	1.89 µM
Cn1[nH]c(-c2ccccc2)c(/C=N/O)c1=O	8.99 µM
Cc1ccccc1Nc1c(-c2ccccn2)nc2ccccn12	13.9 µM (inactive)
Cc1ccc(CO/N=C/c2c(O)cc(C)oc2=O)cc1	16.6 µM (inactive)
O=C(OCC(=O)N1CCN(c2ccccc2)CC1)c1ccc2ccccc2n1	8.13 µM
Cc1ccc(C(C)NC(=O)c2cc3ccccc3oc2=O)cc1C (centres undefined)	3.07 µM
COCCCNC(=O)COC(=O)c1ccc(-c2nc3ccccc3s2)s1	5.37 µM
CC(Oc1ccc(Cl)cc1)C(=O)NNC(=S)NC(=O)c1ccco1 (centres undefined)	22.3 µM (inactive)
COc1ccc(C(=O)NNC(=S)NC(=O)c2cccc([N+](=O)[O-])c2)cc1	11.8 µM (inactive)
O=C(COC(=O)c1ccccc1Cl)NCCC1=CCCCC1	14.1 µM (inactive)
CCOc1cc(CNC(C)(C)CO)cc(Br)c1OCc1ccc(Cl)cc1Cl	10.8 µM (inactive)
O=[N+]([O-])c1cncc([N+](=O)[O-])c1Nc1ccccc1Cl	5.36 µM
O=C(N/N=C/C(Br)=C/c1ccccc1)c1ccncc1	3.89 µM
CCOC(=O)CCCNC(=O)COC(=O)c1cc(Br)c(Br)s1	9.34 µM
O=C(CCc1ccc(Oc2cc([N+](=O)[O-])cc([N+](=O)[O-])c2)cc1)N1CCCCC1	4.85 µM
CC(=O)CC1(OC(C)=O)C(=O)N(C)c2ccccc21 (centres undefined)	21.5 µM (inactive)
O=C(N/N=C/c1ccc([N+](=O)[O-])s1)c1ccccc1	5.44 µM
